The subject of the assay is human elastin promoter. As to the kind of experiment: Transgenic mouse model of photoaging: human elastin promoter/CAT reporter activity after solar simulating radiation. Particulars: topical application to backs about fifteen minutes before 20 MEDs of SSR, three consecutive days; CAT activity 24 hours after third phototreatment, compared with vehicle alone. The class given is in vivo, transgenic mice.

Consider one compound from patent US20060029555A1, “Compositions and methods for prevention of photoaging” (priority 2002, published 2006).

Structures are written as SMILES.

Method: These mice express human elastin promoter activity in a tissue-specific and developmentally regulated manner. […] In addition, quantitative data can be obtained after only a single exposure to ultraviolet radiation. […] The transgenic mouse is then exposed to solar radiation and human elastin promoter activity in the mouse is determined.
Approximately fifteen minutes after topical application, the mice are exposed to 20 human minimal erythema doses (MEDs) of solar simulating radiation (SSR). […] This procedure is repeated over three consecutive days.
Mice are then sacrificed and skin harvested for determination of CAT activity 24 hours after the third phototreatment. […]
To measure the expression of the human elastin promoter/CAT reporter gene construct in the skin of transgenic mice and in fibroblast cultures established from these animals, CAT activity is determined. […] The homogenates are centrifuged at 10,000 ×g for 15 minutes at 4° C. and the protein concentration in the supernatant determined by a commercial protein assay kit (Bio-Rad Laboratories, Richmond, Calif.). […] The acetylated and non-acetylated forms of radioactive chloramphenicol are separated by thin-layer chromatography and CAT activity is determined by the radioactivity in the acetylated forms as a percent of the total radioactivity in each sample.

`Cn1c(=O)c2c(ncn2C)n(C)c1=O` [caffeine]: the “protection against photoaging and other sun-damage (human elastin promoter activity, CAT activity in skin)” value is “provides protection against photoaging and other sun-damage such as sunburn”.
